Patent US11000033B2, “Ketone or oxime compound, and herbicide” (NISSAN CHEMICAL CORPORATION, priority 2014, dated 2021)

What was measured:
Format in all cases: in vivo
Alopecurus myosuroides [1] = test: Test Example 4: herbicidal effect by soil treatment (symbol J); conditions: application herbicide amount 320 g/ha
In short: (§1)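 Seeds were sown in sterilized diluvial soil, covered with about 1.5 cm of soil, and the soil surface was sprayed with a water-diluted emulsion of the compound at a predetermined rate. Plants grew in a greenhouse at 25° C. to 30° C.; effects were scored visually 3 weeks after application.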

Stellaria media = test: Test Example 4: herbicidal effect by soil treatment (symbol P); conditions: application herbicide amount 320 g/ha
In short: as §1

wheat [2] = test: Test Example 4: effect on crop by soil treatment (symbol e); conditions: application herbicide amount 320 g/ha
In short: (§2)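 Crop seed is sown in spots together with several weed species in a box of sterilized diluvial soil. It is covered by about 1.5 cm of soil and kept in a greenhouse held between 25° C. and 30° C.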

corn = test: Test Example 4: effect on crop by soil treatment (symbol c); conditions: application herbicide amount 320 g/ha
In short: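 Plants are raised in a greenhouse (25° C. to 30° C.) from spot-sown seed, which sits under about 1.5 cm of sterilized diluvial soil in a box shared with weed species.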

Lolium multiflorum Lam. [3] = test: Test Example 5: herbicidal effect by foliage application, plastic box (symbol K); conditions: 320 g/ha, 3 weeks after application
In short: (§3)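 Herbicide, formulated as an emulsion and diluted in water, is sprayed onto the aerial parts of 14-day seedlings. These were grown at 25° C. to 30° C. in sterilized diluvial soil; effects are graded after 3 weeks.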

wheat [4] = test: Test Example 5: effect on crop by foliage application, plastic box (symbol e); conditions: 320 g/ha, 3 weeks after application
In short: (§4)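 A greenhouse held between 25° C. and 30° C. was used to grow plants sown spot-wise, beneath ~1.5 cm of soil, in boxes of sterilized diluvial soil.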

[5] = test system: directly sowed rice plant; test: Test Example 3: effect on crop by foliage application, Wagner pot (symbol b); conditions: application herbicide amount 320 g/ha
In short: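 Greenhouse culture at 25–30 °C of seeded rice, Cyperus difformis, Leptochloa chinensis and Echinochloa crus-galli var. crus-galli, in alluvial soil held under 0.1–0.5 cm of water in a Wagner pot.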

rice = test: Test Example 4: effect on crop by soil treatment (symbol b); conditions: application herbicide amount 320 g/ha
In short: as §2

beet = test: Test Example 4: effect on crop by soil treatment (symbol f); conditions: application herbicide amount 320 g/ha
In short: as §2

Lolium multiflorum Lam. [6] = test: Test Example 4: herbicidal effect by soil treatment (symbol K); conditions: application herbicide amount 320 g/ha
In short: as §1

rapeseed = test: Test Example 4: effect on crop by soil treatment (symbol g); conditions: application herbicide amount 320 g/ha
In short: as §2

Digitaria ciliaris = test: Test Example 4: herbicidal effect by soil treatment (symbol F); conditions: application herbicide amount 320 g/ha
In short: as §1

Alopecurus myosuroides [7] = test: Test Example 5: herbicidal effect by foliage application, plastic box (symbol J); conditions: 320 g/ha, 3 weeks after application
In short: as §3

rice plant = test: Test Example 5: effect on crop by foliage application, plastic box (symbol b); conditions: 320 g/ha, 3 weeks after application
In short: as §4

[8] = test system: Echinochloa oryzacola Vasing.; test: Test Example 2: herbicidal activity, application during weed generation in submerged conditions (symbol A); conditions: Table 23; application herbicide amount 320 g/ha; grade 0-5 by criteria of Test Example 1
In short: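 Each pot contained alluvial soil under 4 cm of water with seeds of all three weeds sown together. Following growth at 25° C. to 30° C. to the one- to two-leaf stage, the floodwater received diluted emulsion at a predetermined amount; visual assessment followed at 3 weeks.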

| SMILES | J: Alopecurus myosuroides, herbicidal effect grade (Alopecurus myosuroides [1]) | P: Stellaria media, herbicidal effect grade (Stellaria media) | e: wheat, effect on crop grade (wheat [2]) | c: corn, effect on crop grade (corn) | K: Lolium multiflorum Lam., herbicidal effect (criteria of Test Example 1) (Lolium multiflorum Lam. [3]) | e: wheat, effect on crop (criteria of Test Example 1) (wheat [4]) | effect on crop b (directly sowed rice plant), grade 0-5 [5] | b: directly sowed rice plant, effect on crop grade (rice) | f: beet, effect on crop grade (beet) | K: Lolium multiflorum Lam., herbicidal effect grade (Lolium multiflorum Lam. [6]) | g: rapeseed, effect on crop grade (rapeseed) | F: Digitaria ciliaris, herbicidal effect grade (Digitaria ciliaris) | J: Alopecurus myosuroides, herbicidal effect (criteria of Test Example 1) (Alopecurus myosuroides [7]) | b: directly sowed rice plant, effect on crop (criteria of Test Example 1) (rice plant) | Herbicidal effect grade, A: Echinochloa oryzacola Vasing. [8] | Herbicidal effect grade, J: Alopecurus myosuroides (Alopecurus myosuroides [1]) | Herbicidal effect grade, P: Stellaria media (Stellaria media) | Effect on crop grade, e: wheat (wheat [2]) | Effect on crop grade, c: corn (corn) | Effect on crop grade, b: directly sowed rice plant (rice) | further results |
| --- | --- | --- | --- | --- | --- | --- | --- | --- | --- | --- | --- | --- | --- | --- | --- | --- | --- | --- | --- | --- | --- |
| CCc1cc(-c2ccc(Cl)cc2)cc(C)c1C1=C(OC(=O)N2CCOCC2)CC(CC(C)=NOC)C1=O (mixture of isomers) [6-064] | 4 (Herbicidal ratio of 70% or higher and lower than 90%) | 0 (Herbicidal ratio of 5% or lower (almost no effect)) | 0 (Herbicidal ratio of 5% or lower (almost no effect)) | 0 (Herbicidal ratio of 5% or lower (almost no effect)) | 5 (Herbicidal ratio of 90% or more (almost completely withered)) | 5 (Herbicidal ratio of 90% or more (almost completely withered)) | 4 (Herbicidal ratio of 70% or higher and lower than 90%) | 0 (Herbicidal ratio of 5% or lower (almost no effect)) | 0 (Herbicidal ratio of 5% or lower (almost no effect)) | 0 (Herbicidal ratio of 5% or lower (almost no effect)) | 0 (Herbicidal ratio of 5% or lower (almost no effect)) | 5 (Herbicidal ratio of 90% or more (almost completely withered)) | 3 (Herbicidal ratio of 40% or higher and lower than 70%) | 5 (Herbicidal ratio of 90% or more (almost completely withered)) | 4 (Herbicidal ratio of 70% or higher and lower than 90%) |  |  |  |  |  |  |
| CON=C(C)CC1CC(O)=C(c2c(C)cc(-n3cncn3)cc2C)C1=O (stereo not drawn) [6-074] | 0 (Herbicidal ratio of 5% or lower (almost no effect)) | 0 (Herbicidal ratio of 5% or lower (almost no effect)) | 0 (Herbicidal ratio of 5% or lower (almost no effect)) | 0 (Herbicidal ratio of 5% or lower (almost no effect)) | 2 (Herbicidal ratio of 20% or higher and lower than 40%) | 0 (Herbicidal ratio of 5% or lower (almost no effect)) | 1 (Herbicidal ratio of 5% or higher and lower than 20%) | 3 (Herbicidal ratio of 40% or higher and lower than 70%) | 0 (Herbicidal ratio of 5% or lower (almost no effect)) | 0 (Herbicidal ratio of 5% or lower (almost no effect)) | 0 (Herbicidal ratio of 5% or lower (almost no effect)) | 0 (Herbicidal ratio of 5% or lower (almost no effect)) | 0 (Herbicidal ratio of 5% or lower (almost no effect)) | 2 (Herbicidal ratio of 20% or higher and lower than 40%) | 1 (Herbicidal ratio of 5% or higher and lower than 20%) |  |  |  |  |  |  |
| CON=C(C)CC1CC(O)=C(c2c(C)cc(-c3ccc(Cl)cc3)cc2OC)C1=O (stereo not drawn) [6-077, 2-(4′-chloro-3-methoxy-5-methyl-[1,1′-biphenyl]-4-yl)-3-hydroxy-5-{2-(methoxyimino)propyl}cyclopent-2-enone] | 5 (Herbicidal ratio of 90% or more (almost completely withered)) | 3 (Herbicidal ratio of 40% or higher and lower than 70%) | 0 (Herbicidal ratio of 5% or lower (almost no effect)) | 0 (Herbicidal ratio of 5% or lower (almost no effect)) | 5 (Herbicidal ratio of 90% or more (almost completely withered)) | 5 (Herbicidal ratio of 90% or more (almost completely withered)) | 5 (Herbicidal ratio of 90% or more (almost completely withered)) | 5 (Herbicidal ratio of 90% or more (almost completely withered)) | 1 (Herbicidal ratio of 5% or higher and lower than 20%) | 5 (Herbicidal ratio of 90% or more (almost completely withered)) | 4 (Herbicidal ratio of 70% or higher and lower than 90%) | 5 (Herbicidal ratio of 90% or more (almost completely withered)) | 5 (Herbicidal ratio of 90% or more (almost completely withered)) | 5 (Herbicidal ratio of 90% or more (almost completely withered)) | 5 (Herbicidal ratio of 90% or more (almost completely withered)) |  |  |  |  |  |  |
| CON=C(C)CC1CC(O)=C(c2c(OC)cc(C)cc2OC)C1=O (stereo not drawn) [6-103] |  |  |  |  | 5 (Herbicidal ratio of 90% or more (almost completely withered)) | 5 (Herbicidal ratio of 90% or more (almost completely withered)) | 5 (Herbicidal ratio of 90% or more (almost completely withered)) |  |  |  |  |  | 5 (Herbicidal ratio of 90% or more (almost completely withered)) | 5 (Herbicidal ratio of 90% or more (almost completely withered)) | 5 (Herbicidal ratio of 90% or more (almost completely withered)) | 5 (Herbicidal ratio of 90% or more (almost completely withered)) | 0 (Herbicidal ratio of 5% or lower (almost no effect)) | 5 (Herbicidal ratio of 90% or more (almost completely withered)) | 5 (Herbicidal ratio of 90% or more (almost completely withered)) | 5 (Herbicidal ratio of 90% or more (almost completely withered)) | Effect on crop grade, f: beet (beet): 0 (Herbicidal ratio of 5% or lower (almost no effect)); Herbicidal effect grade, K: Lolium multiflorum Lam. (Lolium multiflorum Lam. [6]): 5 (Herbicidal ratio of 90% or more (almost completely withered)); Effect on crop grade, g: rapeseed (rapeseed): 0 (Herbicidal ratio of 5% or lower (almost no effect)); Herbicidal effect grade, F: Digitaria ciliaris (Digitaria ciliaris): 5 (Herbicidal ratio of 90% or more (almost completely withered)) |
| CON=C(C)CC1CC(O)=C(c2c(C)cc(-c3ccc(F)c(Cl)c3)cc2C)C1=O (stereo not drawn) [6-085] |  |  |  |  | 5 (Herbicidal ratio of 90% or more (almost completely withered)) | 5 (Herbicidal ratio of 90% or more (almost completely withered)) | 5 (Herbicidal ratio of 90% or more (almost completely withered)) |  |  |  |  |  | 5 (Herbicidal ratio of 90% or more (almost completely withered)) | 5 (Herbicidal ratio of 90% or more (almost completely withered)) | 5 (Herbicidal ratio of 90% or more (almost completely withered)) | 5 (Herbicidal ratio of 90% or more (almost completely withered)) | 5 (Herbicidal ratio of 90% or more (almost completely withered)) | 3 (Herbicidal ratio of 40% or higher and lower than 70%) | 1 (Herbicidal ratio of 5% or higher and lower than 20%) | 1 (Herbicidal ratio of 5% or higher and lower than 20%) | Effect on crop grade, f: beet (beet): 3 (Herbicidal ratio of 40% or higher and lower than 70%); Herbicidal effect grade, K: Lolium multiflorum Lam. (Lolium multiflorum Lam. [6]): 5 (Herbicidal ratio of 90% or more (almost completely withered)); Effect on crop grade, g: rapeseed (rapeseed): 4 (Herbicidal ratio of 70% or higher and lower than 90%); Herbicidal effect grade, F: Digitaria ciliaris (Digitaria ciliaris): 5 (Herbicidal ratio of 90% or more (almost completely withered)) |
